“Also recorded” adds a separate entry of the source.
Assays:
NK1−/− and NK1+/+ mice [1] = assay: Light/dark exploration box (LDEB), locomotor activity after methylphenidate; assay type: in vivo; conditions: methylphenidate 2.5 mg/kg i.p.
Experimental: (§1) Experiments were carried out on male NK1−/− (‘knock-out’) and NK1+/+ (wild-type) mice, weighing 25-35 g (i.e. about 6-7 weeks of age). Mice were derived from a 129/Sv×C57BL/6 genetic background that had been crossed with an outbred MF1 strain (Harlan OLAC, Bicester, UK). All mice were taken from a colony maintained at University College London.
All experiments tested the behaviour of (formerly) treatment-naïve mice in the LDEB and were carried out between 13:00 h and 15:00 h. Each LDEB consisted of a small ‘dark zone’ (length, 15 cm; width, 20 cm; 174 lux) and a larger ‘light zone’ (length, 30 cm; width 20 cm; 346 lux). The walls and floor of the ‘dark zone’ were coloured black. The walls and floor of the ‘light zone’ were coloured white. […]
30 min later, the mice were transferred to the centre of the novel light zone, facing away from the guillotine style door. […] Their behaviour was recorded with a Sony Handycam Vision video recorder for 30 min. The number of lines crossed by all four paws of the mouse (an index of locomotor activity) was scored ‘blind’, in 10-min time-bins. […]
The data were analysed by two-way ANOVA using ‘genotype’ and ‘treatment as main factors. […] Data are expressed as means±s.e.mean and […] was set as the criterion for significance.

[2] = system: NK1−/− and wild-type mice; conditions: wild-type versus NK1−/− mice; FIG. 13
Experimental: The effect of betaxolol and desipramine was tested using similar protocols to those used for testing the effect of d-amphetamine.

NK1−/− and NK1+/+ mice [3] = assay: Light/dark exploration box (LDEB), locomotor activity after d-AMP with or without NK1 antagonist pretreatment; assay type: in vivo; conditions: for locomotor activity (number of lines crossed): d-AMP 2.5 mg/kg i.p.; for behaviour (locomotor activity, response to d-AMP) of NK1+/+ mice given a NK1 antagonist ('pseudo knockout'): RP 67580 5 or 10 mg/kg i.p. or L 733060 5 mg/kg
Experimental: as §1, with “NK1+/+(wild-type)” for “NK1+/+ (wild-type)”
All experiments tested the behaviour of (formerly) treatment-naïve mice in the LDEB and were carried out between 13:00 h and 15:00 h. Each LDEB consisted of a small ‘dark zone’ (length, 15 cm; width, 20 cm; 174 lux) and a larger ‘light zone’ (length 30 cm; width, 20 cm; 346 lux). The walls and floor of the ‘dark zone’ were coloured black. The walls and floor of the ‘light zone’ were coloured white. The floor of both zones was marked as a grid of 5×5 cm squares (12 in the dark zone, 24 in the light zone) which was used to score locomotor activity. The partition separating the two zones incorporated a small (white) guillotine-style door (height 10.5 cm, width 7.5 cm), which could be raised to allow animals to commute between the two compartments. Mice were tested in pairs in two LDEBs, placed side by side. At 13:00 h, each mouse was placed in the dark zone of a LDEB, with the partition door closed. After 30 min in the dark zone, mice of each genotype were randomly assigned to one of six treatment groups (n=3˜4) and given an injection (10 mL/kg; i.p) of either vehicle (one drop of Tween 80 in saline to appropriate volume) or the NK1 antagonist, RP 67580 (5 or 10 mg/kg). The same subjects were given a second injection or either saline or d-amphetamine (2.5 mg/kg, i.p), 30 min later.
At 14:30 h, each mouse was transferred to the centre of the novel light zone, facing away from the guillotine style door. The door was immediately lifted to allow the animals to commute freely between the two compartments. Their behaviour was recorded with a Sony Handycam Vision video recorder for 30 min. The number of lines crossed by all four paws of the mouse (as an index of locomotor activity) was scored ‘blind’, in 5-min time-bins.
In a second experiment, this protocol was repeated, substituting the NK1 antagonist, L 733060 (5 mg/kg) in place of RP 67580. All other details (including Tween vehicle) were the same.
RP 67580 was administered at 5 or 10 mg/kg; dissolved in a drop of Tween 80 and adjusted to the appropriate concentration by adding 0.9% saline. […]
The data were analysed by three-way (experiment testing RP 67580) or two-way (for […]) ANOVA using ‘genotype’, ‘drug’ and ‘dose’ (if appropriate) as main factors. […] Data are expressed as means±s.e.mean and P≦0.05 was set as the criterion for significance.

NK1−/− and NK1+/+ mice [4] = assay: Microdialysis of extracellular dopamine in frontal cortex/striatum after d-amphetamine; assay type: in vivo; conditions: d-amphetamine 5 mg/kg i.p.
Experimental: as §1
Microdialysis probes were constructed in-house and equipped with cuprophan membrane (inner diameter 200 μm, outer diameter 250 μm, molecular weight cut-off 5 kD; Medicell International Ltd., England) forming an active dialysis window of 3.5 mm. Anaesthesia was induced in a closed chamber delivering 2.0% halothane combined with 95% O2/5% CO2 at 2 L/min. The mice were then placed in a stereotaxic frame and anaesthesia maintained, via a face mask, with 1.5% halothane in 95% O2/5% CO2 (2 L/min).
A small incision was made in the scalp to expose the skull and reveal bregma. […] Vital signs were monitored continually to ensure a respiratory rate of 100-190/min (average: 135±20/min). […]
The dopamine content of the dialysis samples was determined by HPLC coupled to electrochemical detection. […] Dopamine was detected using a Coulochem TI detector (ESA) and the mobile phase was conditioned by a guard cell (ESA model 5020). The […] content of the samples was calculated from the peak height of the chromatogram with reference to an external standard. […]

NK1−/− and NK1+/+ mice [5] = assay: Light/dark exploration box, locomotor activity after desipramine; assay type: in vivo; conditions: desipramine 10 mg/kg i.p., FIG. 3
Experimental: Experiments were carried out on male NK1−/− (‘knock-out’) and NK1+/+(wild-type) mice, weighing 25-31 g (i.e. about 6-7 weeks of age). Mice were derived from a 129/Sv×C57BL/6 genetic background that had been crossed with an outbred MF1 strain (Harlan OLAC, Bicester, UK). All mice were taken from a colony maintained at University College London. All experiments were performed in treatment-naïve mice, between 13:00 h and 17:00 h. Behavioural tests were carried out in a custom-built light/dark exploration box (LDEB) (length 45 cm; width 20 cm; depth 25 cm). The test box consisted of a small ‘dark zone’ (length 15 cm; 4 lux) and a larger ‘light zone’ (length 30 cm; 20 lux). The walls and floor of the ‘dark zone’ were coloured black. […] The behaviour of the mouse was recorded on video for the following 30 min. The following behaviours were later scored ‘blind’, in 10 min time-bins: i) latency to leave the light zone following forced entry (anxiety-like behaviour or impulsivity?) ii) latency to first return to the light zone following the first exit (the appearance of all four paws was the criterion for re-entry) (impulsivity) iii) number of returns to the light zone (impulsivity) iv) number of lines crossed by all four paws of the mouse (as an index of locomotor activity) Data were analysed by two-way analysis of variance (ANOVA) using ‘genotype’ and ‘treatment’ as main factors. […]

NK1R−/− and NK1R+/+ mice = assay: Activity meter (locomotor activity chamber), ambulatory activity; assay type: in vivo; conditions: FIG. 2
Experimental: Behavioural tests were carried out in a standard locomotor activity chamber comprising a custom-made transparent perspex box (length 30 cm; width 19 cm; depth 18 cm). The box was placed in the centre of an activity meter (410×410 mm, Columbia Instruments, USA) which was equipped with parallel infrared beams spanning the chamber. Ambulatory activity was scored whenever the mouse interrupted two adjacent beams. Light intensity within the chamber was 82 lux. All experiments were performed in drug-naive mice, between 14:00 h and 18:30 h. […] The apparatus was cleaned thoroughly with water after each experiment.

For `COC(=O)C(c1ccccc1)C1CCCCN1` (stereo not drawn) [methylphenidate], the “locomotor activity (number of lines crossed)” value (NK1−/− and NK1+/+ mice [1]; NK1+/+ mice) was “increased locomotor activity” and the “locomotor activity (number of lines crossed)” value (NK1−/− and NK1+/+ mice [1]; NK1−/− mice) was “reduced activity”.

For `CC(C)NCC(O)COc1ccc(CCOCC2CC2)cc1` (stereo not drawn) [betaxolol], the locomotor activity [2] was “not all drugs that increase locomotor activity in wild-type mice reduce it in NK1^−/− mice”.

In the case of `C[C@H](N)Cc1ccccc1` [d-AMP, d-amphetamine], the “locomotor activity (number of lines crossed)” value (NK1−/− and NK1+/+ mice [3]; NK1+/+ mice) is reported as “increased”, the “locomotor activity (number of lines crossed)” value (NK1−/− and NK1+/+ mice [3]; NK1−/− mice) is reported as “reduced” and the “extracellular dopamine in the frontal cortex/striatum” value (NK1−/− and NK1+/+ mice [4]; NK1+/+ mice) is reported as “increased”. For the same molecule, the “extracellular dopamine in the frontal cortex/striatum” value (NK1−/− and NK1+/+ mice [4]; NK1−/− mice) was “no d-AMP induced increase; also recorded: not NK1−/− mice”.

In the case of `COc1ccccc1CC(=N)N1C[C@@H]2C(=O)CCC(c3ccccc3)(c3ccccc3)[C@@H]2C1` [RP 67580], the “behaviour (locomotor activity, response to d-AMP) of NK1+/+ mice given a NK1 antagonist ('pseudo knockout')” value (NK1−/− and NK1+/+ mice [3]; NK1+/+ mice) is reported as “Mimics that of Nk1−/− Mice”.

`CNCCCN1c2ccccc2CCc2ccccc21` [desipramine] was tested, and the “hyperactivity (locomotor activity) in a light/dark exploration box” value (NK1−/− and NK1+/+ mice [5]) was “reduction”, the “locomotor activity in an activity chamber” value (NK1R−/− and NK1R+/+ mice; NK1R+/+ mice) was “not NK1R+/+ mice” and the “locomotor activity in an activity chamber” value (NK1R−/− and NK1R+/+ mice; NK1R−/− mice) was “reduces locomotor activity”.

In the case of `FC(F)(F)c1cc(CO[C@H]2CCCN[C@H]2c2ccccc2)cc(C(F)(F)F)c1` [L733060], the “behaviour (locomotor activity, response to d-AMP) of NK1+/+ mice given a NK1 antagonist ('pseudo knockout')” value (NK1−/− and NK1+/+ mice [3]; NK1+/+ mice) is reported as “Mimics that of Nk1−/− Mice”.

Source: US20100169994A1, “ANIMAL MODEL” (priority 2007, published 2010)
